# Assays:
# mice injected with LPS = experiment: Organ injury and dysfunction in a mouse model of septic shock (LPS); format: in vivo, C57BL/6 mice; details: 10 mg/kg, all three treatment groups (i.p. 1 h post-LPS, i.v. 1 h post-LPS, i.p. 30 min pre-LPS)
# Protocol: Twenty-six male C57BL/6 mice (Harlan Laboratories, Wyton, UK), weighing 20-30 g were used for this experiment. At time point 0 (t=0 h) mice received either LPS (9 mg/kg in 5 ml/kg 0.9% NaCl) or vehicle (5 ml/kg 0.9% NaCl) intraperitoneally (i.p.). Mice were then sacrificed 16-18 h after the injection of LPS by induction of anaesthesia with ketamine (100 mg/ml)/xylazine (20 mg/ml) solution in a 2:1 ratio and removal of the heart.
# At the end of the experiment, 0.7 ml blood was collected from the right carotid artery and decanted into serum gel tubes (Sarstedt, Numbrecht, Germany). The samples were centrifuged (9900 rpm for 3 min) to separate serum from which urea, creatinine and alanine aminotransferase (ALT) were measured within 24 hours (Idexx Laboratories Ltd., West Yorkshire, UK).
# Share-operated nice received saline (5 ml/kg i.p.) instead of LPS.
# [1] = system: rats subjected to regional myocardial ischaemia and reperfusion; experiment: Regional myocardial ischaemia and reperfusion, artesunate dissolved in 10% DMSO; format: in vivo, Wistar rats; details: for Infarct size reduction: vs control; for infarct size (percentage of the AAR): control 59.8±3.2%, P<0.05
# Protocol: Rats were anesthetised with thiopentone sodium (Intraval® 120 mg/kg i.p.). Anesthesia was maintained by supplementary injections of thiopentone sodium as required. The trachea was cannulated and the animals were ventilated with a Harvard ventilator (inspiratory oxygen concentration: 30%; 70 strokes/min, tidal volume: 8-10 ml/kg). Body temperature was maintained at 37+1° C. with the aid of a rectal probe thermometer attached to a homeothermic blanket unit (Harvard Apparatus Ltd., Edenbridge, Kent. U.K.). […] The right jugular vein was then cannulated for the administration of drugs and saline. A para-sternal thoracotomy was then performed, using an Electrosurgery device to cauterize the intercostals arteries before cutting through three ribs. The chest was retracted and pericardium dissected from the heart. The left anterior descending (LAD) coronary artery was isolated and a snare occluder was placed around the LAD. The retractor was then removed and the animal was allowed to stabilise for 15 min.
# The occluder was tightened at time 0. After 25 min of LAD-occlusion, the occluder was released to allow reperfusion of the previously ischemic myocardium (2 h). Hemodynamic parameters were continuously monitored. Baseline readings were taken prior to treatment, and, myocardial IRI. The pressure rate index (PRI), a relative indicator of myocardial oxygen consumption was calculated as a product of the MAP (mmHg) and HR (beats/minute-bpm) and expressed in mm Hg bpm×10-3.
# At the end of the 2 h reperfusion period, the LAD was re-occluded and 1 ml of Evans Blue dye (2% w/v) was injected into the animal, via the jugular vein. The Evans Blue dye stains the tissue it can circulate through, therefore the non-perfused vascular (occluded) tissue remains un-coloured. Each animal was killed with an over-dose of anaesthetic, the heart excised, and excess dye washed off. […] The ischaemic and non-ischaemic tissue was weighed, and the AAR expressed as a percentage of the left ventricle. The tissue from the AAR was cut into small pieces and incubated with p-nitroblue tetrazolium (NBT, 0.5 mg/ml) for 30 min at 37° C. NBT is a reducing agent that reacts with dehydrogenases present in viable (non-infarcted) tissue to produce a dark blue formazan. Infarcted tissue (non-viable) will not have dehydrogenase activity and will therefore fail to stain. The stained tissue was separated from the infarcted tissue, weighed, and the infarct size expressed as a percentage of the AAR.
# burn injury rats = experiment: Organ injury and dysfunction induced by burn injury in the rat; format: in vivo, Wistar rats; details: 3 mg/kg i.v. 30 min prior to and 30 min after burn injury
# Protocol: Twenty-two male Wistar rats (Harlan, Udine, Italy) weighing 300 to 350 g were anaesthetised with sodium pentobarbital (Eutasil™, 60 mg/kg i.p.; Sanofi Veterinária, Algés, Portugal), which was supplemented as required. Anaesthetised rats were shaved (dorsum and abdomen) and placed onto a thermostatically controlled heating mat (Harvard Apparatus Ltd, Kent, U.K.) and body temperature maintained at 37±1° C. by means of a rectal probe attached to a homeothermic blanket. A tracheotomy was performed to maintain airway patency and to facilitate spontaneous respiration. Thirty minutes prior to burn injury, rats were treated with vehicle or drug, as described in section 3.2. To induce burn injury, a 60% third degree skin burn was induced by immersing dorsal shaved skin in 99° C. water for 10 s using a synthetic foam template. The rats were then dried and placed over the heating mat. Rats were sacrificed at 6 hours after burn injury by overdose of the anaesthetic and serum samples obtained for analysis of organ injury and dysfunction.
# Sham-operated rats underwent identical surgical procedures but without burn injury (immersed in room temperature water).
# [2] = bolus 10, 3, 1 mg/kg in 10% DMSO upon reperfusion, P>0.05 vs Control
smiles,measurement,setting,value
C[C@H]1[C@H](OC(=O)CCC(=O)O)O[C@@H]2O[C@@]3(C)CC[C@H]4[C@H](C)CC[C@@H]1[C@@]24OO3 [artesunate],rise in serum ALT,mice injected with LPS,no significant effect
same,rise in serum creatinine,mice injected with LPS; P>0.05,no significant effect
same,rise in serum urea,mice injected with LPS; P>0.05,no significant effect
same,Infarct size reduction,[1]; 1 mg/kg i.v. upon reperfusion,12%
same,infarct size (percentage of the AAR),[1]; 1 mg/kg i.v. upon reperfusion,48.0±3.5%
same,Infarct size reduction,[1]; 3 mg/kg i.v. upon reperfusion,13%
same,infarct size (percentage of the AAR),[1]; 3 mg/kg i.v. upon reperfusion,46.9±2.3%
same,infarct size (percentage of the AAR),"[1]; 10 mg/kg i.v. bolus upon reperfusion, 25 min ischaemia, 2 h reperfusion",42.8±1.7%
same,Infarct size reduction,[1]; 10 mg/kg i.v. upon reperfusion,28%
same,fall in mean arterial blood pressure caused by myocardial ischaemia and reperfusion,[1]; [2],did not attenuate
same,heart rate,[1]; [2],did not have a significant effect
same,rise in serum creatinine,"burn injury rats; 6 h after burn, P<0.05",significantly attenuated
same,rise in serum urea,"burn injury rats; 6 h after burn, P<0.05",significantly attenuated
same,rise in serum ALT,burn injury rats; P>0.05,no significant effect
same,rise in serum AST,burn injury rats; P>0.05,no significant effect

# Reference: US9949948B2, “Artemisinin and its derivatives for use in the treatment of trauma haemorrhage and associated conditions” (Queen Mary University of London, priority 2011, dated 2018)
